Patent US20230270713A1, “Administration of Resiniferatoxin For Treatment of Bladder Pain or Bladder Cancer” (Sorrento Therapeutics, Inc., priority 2020, published 2023)
Values joined by “and” are separate entries in the source; they are usually repeats but may differ in a detail not shown here. Equal values may be shown once. Read-outs that look alike come from different tables or passages of the source.

Assay: Pharmacokinetic/toxicokinetic profile of RTX after intravesical instillation in dogs
Assay type: in vivo, dog
Method: Local tolerance and the pharmacokinetic (PK), and toxicokinetic (TK) profile of RTX in dogs was determined after a single instillation of RTX into the bladder of dogs (n=6). The RTX formulations were prepared using aseptic techniques in a biological safety cabinet (BSC) by mixing the appropriate amount of diluent with the appropriate amount of RTX. Dosing formulation concentrations used were 1 and 10 mcg/mL.
Three male and three female dogs ranging in weight from 5.95 to 8.60 kg were used in the study. The dogs were assigned into Group 1 (receiving a dose of 1 mcg/mL RTX) or Group 2 (receiving a dose of 10 mcg/mL RTX) as shown in the Table 3 below.
RTX was administered via intravesical instillation into the urinary bladder. The animals were given a single dose of 25 or 250 mcg/dose in a total volume of 25 mL on Day 1 over a period of 1 hour (±5 minutes). RTX and diluent were administered to the dogs under general anesthesia via a Foley catheter placed into the bladder for 1 hour (±5 minutes).
Blood samples were collected from all animals on Day 1 pre-dose and at 0.5, 1, 2, 4, 6, 12, 24, 36, 48, 60, and 72 hours post-dose. The toxicokinetic (TK) parameters were determined for RTX, and if appropriate, the metabolites, from mean concentration-time data.
Cmax is the observed maximum plasma concentration from the start of dosing. Tmax is the time to reach the Cmax. AUC(0-T) is the area under the plasma concentration-time curve from time zero to the last measurable time point calculated by the linear trapezoidal rule.

[1] = male dogs 1003, 1005 individual, 250 mcg intravesical
[2] = male dogs, 250 mcg intravesical

Which results are given for `C=C(C)[C@]12C[C@@H](C)[C@@]34O[C@](Cc5ccccc5)(O[C@@H]1[C@@H]3C=C(COC(=O)Cc1ccc(O)c(OC)c1)C[C@]1(O)C(=O)C(C)=C[C@@H]41)O2` [RTX, resiniferatoxin]?
time by which RTX plasma concentrations fell to zero (male and female dogs, 250 mcg, post-dose): ≤ 4 h; absorption into the systemic circulation (male and female dogs, single 250 mcg intravesical instillation): absorbed rapidly; Plasma concentration of RTX (male dog 1001, 25 mcg intravesical, 0.5 h): BQL (*BQL—Below quantifiable limit (<50.0 pg/mL); adequate signal-to-noise enabled reporting value as estimate); Plasma concentration of RTX (male dog 1001, 25 mcg intravesical, 2 h): BQL (*BQL—Below quantifiable limit (<50.0 pg/mL); adequate signal-to-noise enabled reporting value as estimate); Plasma concentration of RTX (male dog 1001, 25 mcg intravesical, 4 h): BQL (*BQL—Below quantifiable limit (<50.0 pg/mL); adequate signal-to-noise enabled reporting value as estimate); Plasma concentration of RTX (male dog 1001, 25 mcg intravesical, 6 h): BQL (*BQL—Below quantifiable limit (<50.0 pg/mL); adequate signal-to-noise enabled reporting value as estimate); Plasma concentration of RTX (male dog 1001, 25 mcg intravesical, 12 h): BQL (*BQL—Below quantifiable limit (<50.0 pg/mL); adequate signal-to-noise enabled reporting value as estimate); Plasma concentration of RTX (male dog 1001, 25 mcg intravesical, 24 h): BQL (*BQL—Below quantifiable limit (<50.0 pg/mL); adequate signal-to-noise enabled reporting value as estimate); Plasma concentration of RTX (male dog 1001, 25 mcg intravesical, 36 h): BQL (*BQL—Below quantifiable limit (<50.0 pg/mL); adequate signal-to-noise enabled reporting value as estimate); Plasma concentration of RTX (male dog 1001, 25 mcg intravesical, 48 h): BQL (*BQL—Below quantifiable limit (<50.0 pg/mL); adequate signal-to-noise enabled reporting value as estimate); Plasma concentration of RTX (male dog 1001, 25 mcg intravesical, 60 h): BQL (*BQL—Below quantifiable limit (<50.0 pg/mL); adequate signal-to-noise enabled reporting value as estimate); Plasma concentration of RTX (male dog 1001, 25 mcg intravesical, 72 h): BQL (*BQL—Below quantifiable limit (<50.0 pg/mL); adequate signal-to-noise enabled reporting value as estimate); Plasma concentration of RTX (male dog 1001, 25 mcg intravesical, Predose): BQL (*BQL—Below quantifiable limit (<50.0 pg/mL); adequate signal-to-noise enabled reporting value as estimate); AUC(0-T) [1]: 0.365 ng·h/mL; AUC(0-T)/Dose [1]: 1.42 pg·h/mL/µg and 1.46 pg·h/mL/µg; Cmax [1]: 0.44 ng/mL; Cmax/Dose [1]: 1.06 pg/mL/µg and 1.76 pg/mL/µg; Plasma concentration of RTX (male dogs 1003, 1005 individual, 250 mcg intravesical, 0.5 h): 0.44 ng/mL; Plasma concentration of RTX (male dogs 1003, 1005 individual, 250 mcg intravesical, 1 h): 0.151 ng/mL; Plasma concentration of RTX (male dogs 1003, 1005 individual, 250 mcg intravesical, 2 h): 0.0633 ng/mL; Plasma concentration of RTX (male dogs 1003, 1005 individual, 250 mcg intravesical, 4 h): 0 ng/mL; Plasma concentration of RTX (male dogs 1003, 1005 individual, 250 mcg intravesical, 6 h): 0 ng/mL; Plasma concentration of RTX (male dogs 1003, 1005 individual, 250 mcg intravesical, 12 h): 0 ng/mL; Plasma concentration of RTX (male dogs 1003, 1005 individual, 250 mcg intravesical, 24 h): 0 ng/mL; Plasma concentration of RTX (male dogs 1003, 1005 individual, 250 mcg intravesical, 36 h): 0 ng/mL; Plasma concentration of RTX (male dogs 1003, 1005 individual, 250 mcg intravesical, 48 h): 0 ng/mL; Plasma concentration of RTX (male dogs 1003, 1005 individual, 250 mcg intravesical, 60 h): 0 ng/mL; Plasma concentration of RTX (male dogs 1003, 1005 individual, 250 mcg intravesical, 72 h): 0 ng/mL; Plasma concentration of RTX (male dogs 1003, 1005 individual, 250 mcg intravesical, Predose): 0 ng/mL; AUC(0-T)/Dose, Mean [2]: 1.44 pg·h/mL/µg; Cmax/Dose, Mean [2]: 1.41 pg/mL/µg; Plasma concentration of RTX, Mean (male dogs, 250 mcg intravesical, Predose): 0 µg/mL; AUC(0-t) (male, dog, plasma, 250 ug, male dogs 1003, 1005 individual, 250 mcg intravesical, read-out: AUC(0-T)): 0.356 ng·h/mL; Cmax (male, dog, plasma, 250 ug, male dogs 1003, 1005 individual, 250 mcg intravesical, read-out: Cmax): 0.264 ng/mL; Tmax (male, dog, plasma, 250 ug, male dogs 1003, 1005 individual, 250 mcg intravesical, read-out: Tmax): 60 min; AUC(0-t) (male, dog, plasma, 250 ug, male dogs, 250 mcg intravesical, read-out: AUC(0-T), Mean): 0.361 ± 0.00636 ng·h/mL; Cmax (male, dog, plasma, 250 ug, male dogs, 250 mcg intravesical, read-out: Cmax, Mean): 0.352 ± 0.124 ng/mL; Tmax (male, dog, plasma, 250 ug, male dogs, 250 mcg intravesical, read-out: Tmax, Mean): 45 ± 21.2 min; Tmax (male, dog, plasma, other: intravesical instillation, 250 ug, male dogs, 250 mcg intravesical, read-out: Tmax, Mean): 45 min; concentration at 1 h (male, dog, plasma, other: intravesical instillation, 25 mcg, male dog 1001, 25 mcg intravesical, 1 h, read-out: Plasma concentration of RTX): 0.0155 ng/mL; concentration at 0.5 h (male, dog, plasma, other: intravesical instillation, 250 mcg, male dogs 1003, 1005 individual, 250 mcg intravesical, 0.5 h, read-out: Plasma concentration of RTX): 0.257 ng/mL; concentration at 1 h (male, dog, plasma, other: intravesical instillation, 250 mcg, male dogs 1003, 1005 individual, 250 mcg intravesical, 1 h, read-out: Plasma concentration of RTX): 0.264 ng/mL; concentration at 2 h (male, dog, plasma, other: intravesical instillation, 250 mcg, male dogs 1003, 1005 individual, 250 mcg intravesical, 2 h, read-out: Plasma concentration of RTX): 0.0597 ng/mL; concentration at 4 h (male, dog, plasma, other: intravesical instillation, 250 mcg, male dogs 1003, 1005 individual, 250 mcg intravesical, 4 h, read-out: Plasma concentration of RTX): 0 µg/mL; concentration at 6 h (male, dog, plasma, other: intravesical instillation, 250 mcg, male dogs 1003, 1005 individual, 250 mcg intravesical, 6 h, read-out: Plasma concentration of RTX): 0 µg/mL; concentration at 12 h (male, dog, plasma, other: intravesical instillation, 250 mcg, male dogs 1003, 1005 individual, 250 mcg intravesical, 12 h, read-out: Plasma concentration of RTX): 0 µg/mL; concentration at 24 h (male, dog, plasma, other: intravesical instillation, 250 mcg, male dogs 1003, 1005 individual, 250 mcg intravesical, 24 h, read-out: Plasma concentration of RTX): 0 µg/mL; concentration at 36 h (male, dog, plasma, other: intravesical instillation, 250 mcg, male dogs 1003, 1005 individual, 250 mcg intravesical, 36 h, read-out: Plasma concentration of RTX): 0 µg/mL; concentration at 48 h (male, dog, plasma, other: intravesical instillation, 250 mcg, male dogs 1003, 1005 individual, 250 mcg intravesical, 48 h, read-out: Plasma concentration of RTX): 0 µg/mL; concentration at 60 h (male, dog, plasma, other: intravesical instillation, 250 mcg, male dogs 1003, 1005 individual, 250 mcg intravesical, 60 h, read-out: Plasma concentration of RTX): 0 µg/mL; concentration at 72 h (male, dog, plasma, other: intravesical instillation, 250 mcg, male dogs 1003, 1005 individual, 250 mcg intravesical, 72 h, read-out: Plasma concentration of RTX): 0 µg/mL; concentration at 0.5 h (male, dog, plasma, other: intravesical instillation, 250 mcg, male dogs, 250 mcg intravesical, 0.5 h, read-out: Plasma concentration of RTX, Mean): 0.349 ng/mL; concentration at 1 h (male, dog, plasma, other: intravesical instillation, 250 mcg, male dogs, 250 mcg intravesical, 1 h, read-out: Plasma concentration of RTX, Mean): 0.208 ng/mL; concentration at 2 h (male, dog, plasma, other: intravesical instillation, 250 mcg, male dogs, 250 mcg intravesical, 2 h, read-out: Plasma concentration of RTX, Mean): 0.0615 ng/mL; concentration at 4 h (male, dog, plasma, other: intravesical instillation, 250 mcg, male dogs, 250 mcg intravesical, 4 h, read-out: Plasma concentration of RTX, Mean): 0 µg/mL; concentration at 6 h (male, dog, plasma, other: intravesical instillation, 250 mcg, male dogs, 250 mcg intravesical, 6 h, read-out: Plasma concentration of RTX, Mean): 0 µg/mL; concentration at 12 h (male, dog, plasma, other: intravesical instillation, 250 mcg, male dogs, 250 mcg intravesical, 12 h, read-out: Plasma concentration of RTX, Mean): 0 µg/mL; concentration at 24 h (male, dog, plasma, other: intravesical instillation, 250 mcg, male dogs, 250 mcg intravesical, 24 h, read-out: Plasma concentration of RTX, Mean): 0 µg/mL; concentration at 36 h (male, dog, plasma, other: intravesical instillation, 250 mcg, male dogs, 250 mcg intravesical, 36 h, read-out: Plasma concentration of RTX, Mean): 0 µg/mL; concentration at 48 h (male, dog, plasma, other: intravesical instillation, 250 mcg, male dogs, 250 mcg intravesical, 48 h, read-out: Plasma concentration of RTX, Mean): 0 µg/mL; concentration at 60 h (male, dog, plasma, other: intravesical instillation, 250 mcg, male dogs, 250 mcg intravesical, 60 h, read-out: Plasma concentration of RTX, Mean): 0 µg/mL; concentration at 72 h (male, dog, plasma, other: intravesical instillation, 250 mcg, male dogs, 250 mcg intravesical, 72 h, read-out: Plasma concentration of RTX, Mean): 0 µg/mL
